Reference: patent US20080319065A1, “Systemic and Intrathecal Effects of a Novel Series of Phospholipase A2 Inhibitors on Hyperalgesia and Spinal Pge2 Release” (The Regents of the University of California, priority 2005, published 2008)

How the values were obtained:
GVIA PLA2 = molecular target: T1, GVIA PLA2 (Homo sapiens, UniProt O60733); test: Time dependence and reversibility of GVIA PLA2 inhibition; assay type: biochemical
T1 sequence (O60733 1-806): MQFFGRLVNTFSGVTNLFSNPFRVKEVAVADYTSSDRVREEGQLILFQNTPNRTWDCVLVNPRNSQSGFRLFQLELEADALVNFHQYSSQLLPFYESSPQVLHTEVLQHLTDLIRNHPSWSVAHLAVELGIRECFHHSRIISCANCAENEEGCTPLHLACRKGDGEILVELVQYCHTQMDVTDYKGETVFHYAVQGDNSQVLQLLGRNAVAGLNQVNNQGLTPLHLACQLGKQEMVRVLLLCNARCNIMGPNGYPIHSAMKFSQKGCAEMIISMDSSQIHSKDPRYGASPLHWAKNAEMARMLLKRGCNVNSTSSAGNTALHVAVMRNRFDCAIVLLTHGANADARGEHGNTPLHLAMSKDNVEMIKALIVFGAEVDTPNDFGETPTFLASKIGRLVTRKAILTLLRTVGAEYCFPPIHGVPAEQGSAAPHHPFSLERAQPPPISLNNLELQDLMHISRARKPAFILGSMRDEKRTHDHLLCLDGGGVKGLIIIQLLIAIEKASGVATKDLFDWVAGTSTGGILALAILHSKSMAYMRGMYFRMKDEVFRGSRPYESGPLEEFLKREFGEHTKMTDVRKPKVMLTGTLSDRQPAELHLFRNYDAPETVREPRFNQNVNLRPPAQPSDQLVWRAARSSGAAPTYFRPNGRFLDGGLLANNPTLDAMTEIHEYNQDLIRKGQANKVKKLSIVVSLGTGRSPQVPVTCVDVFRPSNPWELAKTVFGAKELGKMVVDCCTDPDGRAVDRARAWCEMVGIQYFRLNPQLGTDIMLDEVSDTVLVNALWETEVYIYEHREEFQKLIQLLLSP
Experimental: GVIA PLA2 (25 ng) was preincubated with either AX010 or AX0073 (5 μM) for 0, 5, 15 or 30 minutes and then assayed in the standard GVIA PLA2 assay mix containing 5 μM inhibitor. The final concentration of the inhibitors in the assay mix was 0.01 mole fraction, and the samples were incubated for 30 minutes at 40° C. […] In the latter respect, 25 ng of GVIA PLA2 was pre-incubated with 10 μM AX010 or AX073 for 10 minutes before diluting the enzyme 1:50 into the standard GVIA PLA2 assay mix lacking inhibitor, and incubating for 30 minutes at 40° C. The final inhibitor concentration in these assays was 0.0004 mole fraction, well below surface concentrations that either AX010 or AX073 inhibit the enzyme.

[1] = system: intrathecal SP evoked thermal hyperalgesia; test: Intrathecal substance P-induced thermal hyperalgesia; assay type: in vivo, rat; conditions: 3 mg/kg IP, 30 min before IT SP
Excerpt: Male Holtzman Sprague-Dawley rats (300-350 g; Harlan Industries) were individually housed and maintained on a 12-hr light/dark cycle with free access to food and water. For spinal drug injections, lumbar catheters were implanted in rats under isoflurane anesthesia according to a modification of the procedure described by Yaksh (Yaksh and Rudy, supra, 1976). A polyethylene catheter (PE-5; Spectranetics, 0.014 in OD) was inserted into the intrathecal space and advanced to the rostral edge of the lumbar enlargement through an incision in the atlanto-occipital membrane. Five days after implantation rats were entered into the study. […] A timer was actuated with the light source, and latency was defined as the time required for the paw to show a brisk withdrawal as detected by photodiode motion sensors that stop the timer and terminate the stimulus. Paw withdrawal latencies (PWL) were assessed prior to any treatment (control) and at intervals after treatment. Left (injured) and right (uninjured) paw withdrawal latencies were assessed and plotted versus time. In addition, difference latency scores (uninjured-injured) were calculated and the average withdrawal latency over the post-injection observation intervals are calculated for comparison between treatment groups. […] The mean PWL of the left and right paws was assessed at each time point. […]

CCC(=O)C(=O)NCCCC(=O)OC [AX010]
reversibility of GVIA PLA2 inhibition (GVIA PLA2; pre-incubated with 10 μM for 10 minutes, diluted 1:50, final 0.0004 mole fraction): freely reversible inhibitors
time-dependent inhibition of GVIA PLA2 (GVIA PLA2; preincubated 0, 5, 15 or 30 minutes, 5 μM inhibitor, 0.01 mole fraction): no increased potency with prolonged incubation

CCCCCCCCCCCCCCC(=O)C(=O)NCCCC(=O)OCC [AX048, Ethyl 4-[(2-oxohexadecanoyl)amino]butanoate]
prevention of intrathecal SP-evoked thermal hyperalgesia [1]: completely prevented the spinally-evoked thermal hyperalgesia
melting point: 63 to 64 °C
